IC50 data for 19 molecules are collected here from patent US11987588B2, “Modulators of the beta-3 adrenergic receptor useful for the treatment or prevention of heart failure and disorders related thereto” (Arena Pharmaceuticals, Inc., priority 2017, dated 2024).

Chain of Beta-3 Adrenergic Receptor (P13945 whole entry, species assumed): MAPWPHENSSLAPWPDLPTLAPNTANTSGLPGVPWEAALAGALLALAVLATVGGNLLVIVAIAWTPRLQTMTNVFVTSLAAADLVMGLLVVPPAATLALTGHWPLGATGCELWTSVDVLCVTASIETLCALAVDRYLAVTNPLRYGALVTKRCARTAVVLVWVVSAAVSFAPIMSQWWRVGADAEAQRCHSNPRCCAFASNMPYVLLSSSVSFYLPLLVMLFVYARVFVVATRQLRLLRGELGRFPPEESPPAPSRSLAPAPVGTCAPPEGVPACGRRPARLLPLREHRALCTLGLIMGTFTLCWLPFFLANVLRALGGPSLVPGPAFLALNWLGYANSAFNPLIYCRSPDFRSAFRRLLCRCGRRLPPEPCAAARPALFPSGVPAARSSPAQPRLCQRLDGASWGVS

The assay deals with Beta-3 Adrenergic Receptor (Homo sapiens (Human), UniProt P13945). The assay is described as follows: Homogeneous Time-Resolved Fluorescence (HTRF) cAMP antagonist assay, IC50 determination. It is filed as cell-based. As to conditions: CHO-K1 cells stably expressing recombinant receptor, isoproterenol at EC90. As to the method:
HTRF cAMP assays were performed according to manufacturer's instructions (Cisbio, cAMP Dynamic 2 Assay Kit; #62AM4PEJ). CHO-K1 cells stably expressing recombinant receptor were harvested and suspended in warm PBS to make a 300,000 cells/mL stock. This cell suspension was dispensed into 384 well assay plates (PerkinElmer ProxiPlate #6008280) at 5 μL per well (1500 cells/well) along with a cAMP standard curve.
Compounds were dissolved and serially diluted (5-fold) in DMSO to generate a 10-point dose response stock. The stock was then diluted 100-fold in assay buffer (PBS containing 1 mM IBMX) before a volume of 2.5 μL was added to the cells (the final, top concentration of compound in the dose-response is typically 10 or 100 μM). After a brief incubation, 2.5 μL of isoproterenol stock, prepared at a concentration 4 times its EC90 at the receptor of interest, was added to the wells. The EC90 for isoproterenol, a beta-adrenergic agonist, was determined in separate experiments using standard methods to measure agonist potencies.
Following a 1-hour incubation at room temperature, 5 μL of cAMP-D2 Reagent diluted in Lysis Buffer was added to each well followed by 5 μL of Cryptate Reagent. Plates were further incubated at room temperature for 1 hour prior to reading. Time resolved fluorescence measurements were collected on a suitable, HTRF-capable plate reader.
Counts from the plate reader were fit to the cAMP standard curve on the assay plate in order to determine cAMP concentrations in each well, and these values were used to construct dose-response curves to obtain IC50 values.
Turning to `CN1CCOc2ncc(S(=O)(=O)N3CCC4(CC3)C[C@@H](NC[C@H](O)COc3cccc(S(=O)(=O)NC5CCCC5O)c3)CO4)cc21` (stereo in doubt) [Compound 437, 3-((S)-2-hydroxy-3-((R)-8-(1-methyl-2,3-dihydro-1H-pyrido[2,3-b][1,4]oxazin-7-ylsulfonyl)-1-oxa-8-azaspiro[4.5]decan-3-ylamino)propoxy)-N-((1R,2S)-2-hydroxycyclopentyl)benzenesulfonamide], the IC50 was 472 nM.

As for `CNS(=O)(=O)c1cccc(OC[C@@H](O)CNC2COC3(CCN(S(=O)(=O)c4ccc5ccccc5c4)CC3)C2)c1` (stereo partly drawn) [Compound 1, 3-((2S)-2-hydroxy-3-(8-(naphthalen-2-ylsulfonyl)-1-oxa-8-azaspiro[4.5]decan-3-ylamino)propoxy)-N-methylbenzenesulfonamide], the IC50 came out at 5.4 nM.

Turning to `CCCNS(=O)(=O)c1cccc(OC[C@@H](O)CNC2COC3(CCN(S(=O)(=O)c4ccc5ccccc5c4)CC3)C2)c1` (stereo partly drawn) [Compound 2, 3-((2S)-2-hydroxy-3-(8-(naphthalen-2-ylsulfonyl)-1-oxa-8-azaspiro[4.5]decan-3-ylamino)propoxy)-N-propylbenzenesulfonamide], the IC50 was 21.1 nM.

Take `CCCCCNS(=O)(=O)c1cccc(OC[C@@H](O)CNC2COC3(CCN(S(=O)(=O)c4ccc5ccccc5c4)CC3)C2)c1` (stereo partly drawn) [Compound 3, 3-((2S)-2-hydroxy-3-(8-(naphthalen-2-ylsulfonyl)-1-oxa-8-azaspiro[4.5]decan-3-ylamino)propoxy)-N-pentylbenzenesulfonamide]: the IC50 came out at 133 nM.

Turning to `CN(C)S(=O)(=O)c1cccc(OC[C@@H](O)CNC2COC3(CCN(S(=O)(=O)c4ccc5ccccc5c4)CC3)C2)c1` (stereo partly drawn) [Compound 4, 3-((2S)-2-hydroxy-3-(8-(naphthalen-2-ylsulfonyl)-1-oxa-8-azaspiro[4.5]decan-3-ylamino)propoxy)-N,N-dimethylbenzenesulfonamide], the IC50 stood at 11.2 nM.

As to `O=S(=O)(NCC(F)(F)F)c1cccc(OC[C@@H](O)CNC2COC3(CCN(S(=O)(=O)c4ccc5ccccc5c4)CC3)C2)c1` (stereo partly drawn) [Compound 5, 3-((2S)-2-hydroxy-3-(8-(naphthalen-2-ylsulfonyl)-1-oxa-8-azaspiro[4.5]decan-3-ylamino)propoxy)-N-(2,2,2-trifluoroethyl)benzenesulfonamide], the 50% inhibitory concentration (IC50) was 220 nM.

In the case of `CC(C)NS(=O)(=O)c1cccc(OC[C@@H](O)CNC2COC3(CCN(S(=O)(=O)c4ccc5ccccc5c4)CC3)C2)c1` (stereo partly drawn) [Compound 6, 3-((2S)-2-hydroxy-3-(8-(naphthalen-2-ylsulfonyl)-1-oxa-8-azaspiro[4.5]decan-3-ylamino)propoxy)-N-isopropylbenzenesulfonamide], the IC50 stood at 24.3 nM.

As for `CCN(C(C)C)S(=O)(=O)c1cccc(OC[C@@H](O)CNC2COC3(CCN(S(=O)(=O)c4ccc5ccccc5c4)CC3)C2)c1` (stereo partly drawn) [Compound 7, N-ethyl-3-((2S)-2-hydroxy-3-(8-(naphthalen-2-ylsulfonyl)-1-oxa-8-azaspiro[4.5]decan-3-ylamino)propoxy)-N-isopropylbenzenesulfonamide], the IC50 came to 285 nM.

Turning to `O=S(=O)(NCC1CC1)c1cccc(OC[C@@H](O)CNC2COC3(CCN(S(=O)(=O)c4ccc5ccccc5c4)CC3)C2)c1` (stereo partly drawn) [Compound 8, N-(cyclopropylmethyl)-3-((2S)-2-hydroxy-3-(8-(naphthalen-2-ylsulfonyl)-1-oxa-8-azaspiro[4.5]decan-3-ylamino)propoxy)benzenesulfonamide], the IC50 was found to be 38.7 nM.

On to `O=S(=O)(NCC(F)F)c1cccc(OC[C@@H](O)CNC2COC3(CCN(S(=O)(=O)c4ccc5ccccc5c4)CC3)C2)c1` (stereo partly drawn) [Compound 9, N-(2,2-difluoroethyl)-3-((2S)-2-hydroxy-3-(8-(naphthalen-2-ylsulfonyl)-1-oxa-8-azaspiro[4.5]decan-3-ylamino)propoxy)benzenesulfonamide], for which the IC50 was found to be 107 nM.

Take `CCC(C)NS(=O)(=O)c1cccc(OC[C@@H](O)CNC2COC3(CCN(S(=O)(=O)c4ccc5ccccc5c4)CC3)C2)c1` (stereo partly drawn) [Compound 10, N-sec-butyl-3-((2S)-2-hydroxy-3-(8-(naphthalen-2-ylsulfonyl)-1-oxa-8-azaspiro[4.5]decan-3-ylamino)propoxy)benzenesulfonamide]: the half-inhibitory concentration (IC50) is 49.2 nM.

Turning to `CONS(=O)(=O)c1cccc(OC[C@@H](O)CNC2COC3(CCN(S(=O)(=O)c4ccc5ccccc5c4)CC3)C2)c1` (stereo partly drawn) [Compound 11, 3-((2S)-2-hydroxy-3-(8-(naphthalen-2-ylsulfonyl)-1-oxa-8-azaspiro[4.5]decan-3-ylamino)propoxy)-N-methoxybenzenesulfonamide], the IC50 turned out to be 15.1 nM.

As for `O=S(=O)(NCCO)c1cccc(OC[C@@H](O)CNC2COC3(CCN(S(=O)(=O)c4ccc5ccccc5c4)CC3)C2)c1` (stereo partly drawn) [Compound 12, 3-((2S)-2-hydroxy-3-(8-(naphthalen-2-ylsulfonyl)-1-oxa-8-azaspiro[4.5]decan-3-ylamino)propoxy)-N-(2-hydroxyethyl)benzenesulfonamide], the IC50 stood at 31.7 nM.

Consider `COCCNS(=O)(=O)c1cccc(OC[C@@H](O)CNC2COC3(CCN(S(=O)(=O)c4ccc5ccccc5c4)CC3)C2)c1` (stereo partly drawn) [Compound 13, 3-((2S)-2-hydroxy-3-(8-(naphthalen-2-ylsulfonyl)-1-oxa-8-azaspiro[4.5]decan-3-ylamino)propoxy)-N-(2-methoxyethyl)benzenesulfonamide], for which the concentration for half-maximal inhibition (IC50) was found to be 28.7 nM.

Consider `CNS(=O)(=O)c1cccc(OC[C@@H](O)CNC2COC3(CCN(S(=O)(=O)c4ccccc4)CC3)C2)c1` (stereo partly drawn) [Compound 14, 3-((2S)-2-hydroxy-3-(8-(phenylsulfonyl)-1-oxa-8-azaspiro[4.5]decan-3-ylamino)propoxy)-N-methylbenzenesulfonamide], for which the IC50 came out at 30.1 nM.

For `CNS(=O)(=O)c1cccc(OC[C@@H](O)CNC2COC3(CCN(S(=O)(=O)c4cccc(Cl)c4)CC3)C2)c1` (stereo partly drawn) [Compound 15, 3-((2S)-3-(8-(3-chlorophenylsulfonyl)-1-oxa-8-azaspiro[4.5]decan-3-ylamino)-2-hydroxypropoxy)-N-methylbenzenesulfonamide], the IC50 was 12.4 nM.

With `CNS(=O)(=O)c1cccc(OC[C@@H](O)CNC2COC3(CCN(S(=O)(=O)c4ccc5c(c4)CCCC5)CC3)C2)c1` (stereo partly drawn) [Compound 16, 3-((2S)-2-hydroxy-3-(8-(5,6,7,8-tetrahydronaphthalen-2-ylsulfonyl)-1-oxa-8-azaspiro[4.5]decan-3-ylamino)propoxy)-N-methylbenzenesulfonamide], the half-inhibitory concentration (IC50) worked out at 7.47 nM.

Regarding `CNS(=O)(=O)c1cccc(OC[C@@H](O)CNC2COC3(CCN(S(=O)(=O)c4ccc(Cl)cc4)CC3)C2)c1` (stereo partly drawn) [Compound 17, 3-((2S)-3-(8-(4-chlorophenylsulfonyl)-1-oxa-8-azaspiro[4.5]decan-3-ylamino)-2-hydroxypropoxy)-N-methylbenzenesulfonamide], the half-maximal inhibitory concentration (IC50) was 15.3 nM.

As for `CNS(=O)(=O)c1cccc(OC[C@@H](O)CNC2COC3(CCN(S(=O)(=O)c4ccc(OC)cc4)CC3)C2)c1` (stereo partly drawn) [Compound 18, 3-((2S)-2-hydroxy-3-(8-(4-methoxyphenylsulfonyl)-1-oxa-8-azaspiro[4.5]decan-3-ylamino)propoxy)-N-methylbenzenesulfonamide], the half-maximal inhibitory concentration (IC50) amounted to 20.8 nM.
